Measured values taken from patent US9597391B2, “Cyclic-dinucleotides and its conjugates as adjuvants and their uses in pharmaceutical compositions” (HELMHOLTZ_ZENTRUM FUER INFEKTIONSFORSCHUNG GMBH, priority 2005, dated 2017).
“Also recorded” adds a separate entry of the source.

Tests used:
[1] = tested on: re-stimulated spleen cells; experiment: Cytokines in supernatants of in vitro re-stimulated spleen cells by cytometric bead array; format: in vivo, mice; settings: for IL-6 secretion of re-stimulated spleen cells: versus β-Gal without adjuvant (FIGS. 8 and 9); for IFNγ secretion of re-stimulated spleen cells: versus β-Gal without adjuvant, c-diGMP data from i.n. immunized mice (FIG. 7, FIG. 9)
Method: Experimental protocol: Spleens from mucosal (i.n.) or parenteral (s.c.) vaccinated mice were removed and pooled for analysis of cellular immune responses. The protocol for vaccination was identical to the protocol described in Example 2. Cells were grown in RPMI 1640 supplemented with 10% fetal calf serum, 100 U/ml of penicillin, 50 μg/ml of streptomycin, 5×10^−5 M 2-mercaptoethanol and 1 mM L-glutamine (GIBCO BRL, Karlsruhe, Germany) and maintained at 37° C. in a humidified 5% CO2 atmosphere. Spleen cell suspensions were adjusted to 5×10^6 cells/ml in complete medium, cells were seeded with 100 μl per well in a flat-bottomed 96-well microtiter plate (Nunc) and plates were incubated for 4 days in the presence of different concentrations of soluble β-gal.
To characterize the type of Th response stimulated following immunization, the content of IFNγ, IL-6, IL-10, IL-12 (for c-diAMP only), MCP-1, and TNFα was measured in supernatants from in vitro re-stimulated spleen cells (FIG. 7 and 8 for c-diGMP and FIG. 9 for c-diAMP) by the Cytometric Bead Array. Culture supernatants from proliferating cells were collected on days 2 and 4, and stored at −70° C. Determination of IFNγ, TNFα, IL-6, IL-10, IL-12, and MCP-1 was performed by cytometric bead array (CBA) analysis using the commercial kit from BectonDickinson, according to the manufacturer's instructions or with commercially available ELISA systems. For CBA analysis, a standard curve was generated for each cytokine by using the corresponding recombinant murine cytokines (Pharmingen). Probes were incubated at room temperature for additional 2h. The probes were analyzed subsequently by flow cytometry as described in the protocol of BD.

[2] = tested on: BALB/c (H-2d) mice; experiment: β-gal-specific IgA in lung and vaginal lavages of immunized mice; format: in vivo; settings: for β-gal-specific IgA in lung lavages: i.n. immunization, day 38, versus β-gal alone (FIG. 4, FIG. 5)
Method: Experimental protocol: at day 38, mice were sacrificed and the final sampling was performed. Vaginal and lung lavages were obtained by flushing the organs with 1 ml of PBS supplemented with 50 mM EDTA, 0.1% BSA, and 10 mM PMSF. Lavages were then centrifuged to remove debris (10 min at 3000×g), and supernatant fluids were stored at −20° C. To determine the concentration of total IgA present in the lung and vaginal lavages, serial dilutions of the corresponding samples were incubated in microtiter plates that were previously coated with goat anti-mouse IgA (Sigma Chemie), as capture antibodies (100 μl/well). Serial dilutions of purified mouse IgA (Sigma Chemie) were used to generate a standard curve.
To investigate the capacity of c-diGMP and c-diAMP, respectively, to stimulate mucosal responses against antigens co-administered by the i.n. and s.c. route, the production of β-gal-specific IgA in lung was analyzed (FIG. 5 for c-diAMP and FIG. 4 for c-diGMP) from immunized animals, immunized according to the protocol described in Example 2.

[3] = tested on: BALB/c (H-2d) mice; experiment: Serum β-gal-specific IgG ELISA after i.n. or s.c. immunization with β-gal plus adjuvant; format: in vivo; settings: for β-gal specific IgG titer in sera, i.n. administration: β-gal 30 μg/dose with or without adjuvant 10 μg, end point titers (FIG. 11; FIG. 2)
Method: Experimental protocol: six-eight weeks-old female BALB/c (H-2d) mice were purchased from Harlan Winkelmann GmbH (Borchen, Germany) and treated in accordance with local and European Community guidelines. Groups of 5 mice each were immunized on day 1, 14 and 28 with 30 μg of β-gal (Boehringer, Mannheim, Germany), alone or as an admixture with 10 μg c-diGMP or with 10 μpg c-diAMP. For intranasal (i.n.) immunization, 10 μl were applied to each naris, whereas for the s.c. injection β-gal with or without c-diGMP or c-diAMP was resuspended in a volume of 20 μl PBS per animal. Serum samples were collected at day 38 after immunization and stored at −20° C. prior to determination of β-gal-specific antibodies. 96-well Nunc-Immuno MaxiSorp assay plates (Nunc, Roskilde, Denmark) were coated with 100 μl of β-gal (Boehringer, Mannheim, Germany) at 5 μg/ml in 0.05 M carbonate buffer (pH 8.2) per well. Serial two-fold dilutions of sera in PBS with 1% BSA and 0.05% Tween 20 were added (100 μl/well), and plates incubated for 16h at 37° C. After washing, biotinylated γ-chain-specific goat anti-mouse IgG (Sigma Chemie, Deisenhofen, Germany) was added, and plates were incubated for an additional 1 h at 37° C. After four washes, 100 μl of peroxidase-conjugated streptavidin (Pharmingen) was added to cells and plates incubated at 37° C. for 30 min. After four washes, reactions were developed with ABTS in 0.1 M citrate-phosphate buffer (pH 4.35) containing 0.01% H2O2. Results for c-diGMP are shown as OD405 values after serial two-fold dilutions (FIG. 2). […] The effect of c-diGMP as an adjuvant was independent of the route of administration.
In contrast, in the presence of c-diAMP, i.n. administration of β-gal induced very high titers of specific IgG in all mice with titers higher than 500,000 (FIG. 11).
In view of the above in vitro results, additional in vivo studies have been conducted. […] Thus, the capacity of c-diGMP and c-diAMP, respectively, to stimulate efficient humoral immune responses was evaluated, by determining the serum titers of β-gal-specific antibodies in vaccinated mice.

Compound | type of Th response induced ([1]; mice immunized with β-gal plus adjuvant) | TNFα secretion of re-stimulated spleen cells ([1]; versus β-Gal without adjuvant (FIG. 9)) | IL-6 secretion of re-stimulated spleen cells [1] | IFNγ secretion of re-stimulated spleen cells [1] | β-gal specific sIgA expression in vaginal lavage ([2]; c-diAMP as adjuvant, i.n. (FIG. 5)) | β-gal-specific IgA in lung lavages [2] | β-gal specific IgG titer in sera, i.n. administration [3] | Th1 like cytokines in antigen restimulated spleen cells ([1]; β-gal/c-diGMP versus β-gal alone (FIG. 8B)) | β-gal-specific IgA in lung lavages ([2]; listed as c-dGMP) | β-gal specific sIgA expression in vaginal lavage, s.c. route ([2]; s.c. route (not shown)) | β-gal specific IgG titer in sera ([3]; 30 μg β-gal + 10 μg adjuvant, day 1, 14, 28, serum day 38, independent of route (i.n., s.c.), FIG. 2, FIG. 3)
Nc1ncnc2c1ncn2[C@@H]1O[C@@H]2COP(=O)(O)O[C@H]3[C@@H](O)[C@H](n4cnc5c(N)ncnc54)O[C@@H]3COP(=O)(O)O[C@H]2[C@H]1O [c-diAMP, cyclic bis(3′-5′)diadenylic acid] | balanced Th1/Th2 response | enhanced secretion | same results | enhanced secretion | detectable | significant increase | higher than 500,000 | – | – | – | –
Nc1nc2c(ncn2[C@@H]2O[C@@H]3COP(=O)(O)O[C@H]4[C@@H](O)[C@H](n5cnc6c(=O)[nH]c(N)nc65)O[C@@H]4COP(=O)(O)O[C@H]3[C@H]2O)c(=O)[nH]1 [c-diGMP, cyclic bis(3′-5′)diguanylic acid] | – | – | same results | strong expression; also recorded: enhanced secretion | – | higher | increased expression | high expression | significant increase | does not lead to an enhanced expression | remarkably increased
